Data published in PubChem BioAssay AID328 (DTP/NCI, 2004).
Where “and” joins values, the source holds several entries; their conditions need not be identical. Equal entries are not always repeated. Toxic doses and inconclusive results are not listed.

Test system: BDF1 mice, P388 leukemia ip, median survival T/C
Assay: NCI In Vivo Anticancer Drug Screen. Data for tumor model P388 Leukemia (intraperitoneal) in B6D2F1 (BDF1) mice
Conditions: endpoint: median survival time, higher = longer survival
In short: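 Each value expresses how treatment altered survival: treated-mouse outcome over vehicle-mouse outcome, both groups bearing the transplanted tumour.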

[1] = dose: 50.0 mg/kg/injection, schedule: Q01DX009 (ip), vehicle: saline
[2] = dose: 100.0 mg/kg/injection, schedule: Q01DX009 (ip), vehicle: saline
[3] = dose: 200.0 mg/kg/injection, schedule: Q01DX009 (ip), vehicle: saline
[4] = dose: 100.0 mg/kg/injection, schedule: Q01DX009 (ip), vehicle: saline with Tween-80
[5] = dose: 200.0 mg/kg/injection, schedule: Q01DX009 (ip), vehicle: saline with Tween-80
[6] = dose: 400.0 mg/kg/injection, schedule: Q01DX009 (ip), vehicle: saline with Tween-80
[7] = dose: 100.0 mg/kg/injection, schedule: Q04DX003 (ip), vehicle: saline
[8] = dose: 100.0 mg/kg/injection, schedule: Q04DX003 (ip), vehicle: saline with Tween-80
[9] = dose: 200.0 mg/kg/injection, schedule: Q04DX003 (ip), vehicle: saline with Tween-80
[10] = dose: 150.0 mg/kg/injection, schedule: Q01DX001 (ip), vehicle: saline
[11] = dose: 300.0 mg/kg/injection, schedule: Q01DX001 (ip), vehicle: saline
[12] = dose: 6.25 mg/kg/injection, schedule: Q04DX003 (ip), vehicle: saline with Tween-80
[13] = dose: 12.5 mg/kg/injection, schedule: Q01DX009 (ip), vehicle: saline with Tween-80
[14] = dose: 12.5 mg/kg/injection, schedule: Q04DX003 (ip), vehicle: saline with Tween-80
[15] = dose: 25.0 mg/kg/injection, schedule: Q01DX009 (ip), vehicle: saline with Tween-80
[16] = dose: 25.0 mg/kg/injection, schedule: Q04DX003 (ip), vehicle: saline with Tween-80
[17] = dose: 400.0 mg/kg/injection, schedule: Q04DX003 (ip), vehicle: saline with Tween-80
[18] = dose: 25.0 mg/kg/injection, schedule: Q01DX009 (ip), vehicle: Klucel (hydroxypropylcellulose) (HPC)
[19] = dose: 50.0 mg/kg/injection, schedule: Q01DX009 (ip), vehicle: Klucel (hydroxypropylcellulose) (HPC)
[20] = dose: 100.0 mg/kg/injection, schedule: Q01DX009 (ip), vehicle: Klucel (hydroxypropylcellulose) (HPC)
[21] = dose: 400.0 mg/kg/injection, schedule: Q01DX009 (ip), vehicle: saline
[22] = dose: 50.0 mg/kg/injection, schedule: Q01DX009 (ip), vehicle: saline with Tween-80

For `CNCCN(C)CCN(C)Cc1ccc(OC)cc1`, the T/C (dose: 25.0 mg/kg/injection, schedule: Q01DX009 (ip), vehicle: water) was 101 % of control, the T/C [1] was 111 % of control and the T/C (dose: 50.0 mg/kg/injection, schedule: Q01DX009 (ip), vehicle: water) was 110 % of control. The T/C [2] was 101 % of control, the T/C (dose: 100.0 mg/kg/injection, schedule: Q01DX009 (ip), vehicle: water) was 93 % of control and the T/C [3] was 104 % of control.
With `COc1cccc2c1C(=O)c1c(O)c3c(c(O)c1C2=O)C[C@@](O)(C(=O)CO)C[C@@H]3OC1CC(NC(=S)Nc2ccc3ccccc3c2)C(O)C(C)O1` (stereo not given in full) the T/C (dose: 1.56 mg/kg/injection, schedule: Q01DX009 (ip), vehicle: saline) was 95 % of control, the T/C (dose: 3.12 mg/kg/injection, schedule: Q01DX009 (ip), vehicle: saline) was 86 % of control and the T/C (dose: 6.25 mg/kg/injection, schedule: Q01DX009 (ip), vehicle: saline) was 94 % of control. The T/C (dose: 25.0 mg/kg/injection, schedule: Q01DX009 (ip), vehicle: saline) was 99 % of control and 107 % of control, the T/C [1] was 107 % of control and the T/C [2] was 96 % of control.
In the case of `O=S(=O)(Nc1ccc(O)c(Cl)c1)c1ccccc1`, the T/C [4] is reported as 86 % of control, the T/C [5] is reported as 100 % of control and the T/C [6] is reported as 104 % of control.
In the case of `c1ccncc1`, the T/C [7] is reported as 96 % of control, the T/C (dose: 200.0 mg/kg/injection, schedule: Q04DX003 (ip), vehicle: saline) is reported as 102 % of control and the T/C (dose: 400.0 mg/kg/injection, schedule: Q04DX003 (ip), vehicle: saline) is reported as 105 % of control.
`CCOC(=O)CC1=NN=C(N)SC1` was tested, and the T/C [2] was 122 % of control.
With `CC(Cl)(Cl)CC(O)(C(F)(F)F)C(F)(F)F` the T/C (dose: 50.0 mg/kg/injection, schedule: Q04DX003 (ip), vehicle: saline with Tween-80) was 95 % of control, the T/C [8] was 90 % of control and the T/C [9] was 90 % of control.
With `COB(C1CCCCC1)C1CCCCC1` the T/C (dose: 75.0 mg/kg/injection, schedule: Q01DX001 (ip), vehicle: saline) was 113 % of control, the T/C [10] was 104 % of control and the T/C [11] was 95 % of control.
For `Cc1nnc(NS(=O)(=O)c2ccc(N=Nc3nc4[nH]c(N)nc(=S)c4[nH]3)cc2)s1`, the T/C (dose: 5.5 mg/kg/injection, schedule: Q01DX009 (ip), vehicle: saline) was 114 % of control, the T/C (dose: 12.5 mg/kg/injection, schedule: Q04DX003 (ip), vehicle: Klucel (hydroxypropylcellulose) (HPC)) was 95 % of control and the T/C (dose: 25.0 mg/kg/injection, schedule: Q04DX003 (ip), vehicle: Klucel (hydroxypropylcellulose) (HPC)) was 104 % of control. For the same molecule, the T/C (dose: 50.0 mg/kg/injection, schedule: Q04DX003 (ip), vehicle: Klucel (hydroxypropylcellulose) (HPC)) was 100 % of control, the T/C (dose: 80.0 mg/kg/injection, schedule: Q01DX009 (ip), vehicle: Klucel (hydroxypropylcellulose) (HPC)) was 155 % of control and the T/C (dose: 170.0 mg/kg/injection, schedule: Q01DX009 (ip), vehicle: saline) was 172 % of control.
For `CC(=O)SCCC(=O)O`, the T/C (dose: 6.25 mg/kg/injection, schedule: Q01DX009 (ip), vehicle: saline with Tween-80) was 109 % of control, the T/C [12] was 100 % of control and the T/C [13] was 100 % of control. The T/C [14] was 95 % of control, the T/C [15] was 109 % of control and the T/C [16] was 100 % of control.
`COC(=O)CSc1ncc2cnccn12` was tested, and the T/C (dose: 100.0 mg/kg/injection, schedule: Q04DX003 (ip), vehicle: water) was 109 % of control, the T/C (dose: 200.0 mg/kg/injection, schedule: Q04DX003 (ip), vehicle: water) was 100 % of control and the T/C (dose: 400.0 mg/kg/injection, schedule: Q04DX003 (ip), vehicle: water) was 109 % of control.
In the case of `CCC(=O)NC1=C(N2CC2)C(=O)C(NC(=O)CC)=C(N2CC2)C1=O`, the T/C (dose: 1.0 mg/kg/injection, schedule: Q01DX009 (ip), vehicle: saline) is reported as 171 % of control and 185 % of control, the T/C (dose: 2.0 mg/kg/injection, schedule: Q01DX009 (ip), vehicle: saline) is reported as 225 % of control and 228 % of control and the T/C (dose: 4.0 mg/kg/injection, schedule: Q01DX009 (ip), vehicle: saline) is reported as 90 % of control and 119 % of control.
With `CN1C=NNc2ccc(Cl)cc2C1=O` the T/C [8] was 103 % of control, the T/C [9] was 114 % of control and the T/C [17] was 109 % of control.
For `OCCC1CC1=C1CC1` (stereo not given), the T/C [18] was 105 % of control, the T/C [19] was 105 % of control and the T/C [20] was 110 % of control.
In the case of `O=C(NNc1ccccc1)C(F)(F)F`, the T/C (dose: 12.5 mg/kg/injection, schedule: Q01DX009 (ip), vehicle: Klucel (hydroxypropylcellulose) (HPC)) is reported as 90 % of control, the T/C [18] is reported as 95 % of control and the T/C (dose: 37.5 mg/kg/injection, schedule: Q04DX003 (ip), vehicle: saline with Tween-80) is reported as 100 % of control. For the same molecule, the T/C [19] was 110 % of control, the T/C (dose: 56.25 mg/kg/injection, schedule: Q01DX001 (ip), vehicle: saline with Tween-80) was 104 % of control and the T/C (dose: 75.0 mg/kg/injection, schedule: Q04DX003 (ip), vehicle: saline with Tween-80) was 104 % of control. For the same molecule, the T/C (dose: 112.5 mg/kg/injection, schedule: Q01DX001 (ip), vehicle: saline with Tween-80) was 100 % of control.
For `OCc1cccnc1`, the T/C [1] was 93 % of control, the T/C [2] was 100 % of control and the T/C [3] was 100 % of control. For the same molecule, the T/C [21] was 108 % of control.
`Oc1cc2c(cc1O)C1c3ccc(O)c(O)c3OCC1(O)C2` (stereo not given) was tested, and the T/C [22] was 97 % of control, the T/C [4] was 118 % of control and the T/C [5] was 102 % of control. For the same molecule, the T/C [6] was 103 % of control.
In the case of `CCSc1ncnc2[nH]ncc12`, the T/C (dose: 6.25 mg/kg/injection, schedule: Q01DX009 (ip), vehicle: saline + alcohol) is reported as 101 % of control, the T/C (dose: 12.5 mg/kg/injection, schedule: Q01DX009 (ip), vehicle: saline + alcohol) is reported as 100 % of control and the T/C (dose: 25.0 mg/kg/injection, schedule: Q01DX009 (ip), vehicle: saline + alcohol) is reported as 100 % of control. For the same molecule, the T/C (dose: 50.0 mg/kg/injection, schedule: Q01DX009 (ip), vehicle: saline + alcohol) was 98 % of control.
With `C[C@]12C=CC(=O)C[C@@H]1CC[C@@H]1[C@@H]2C(=O)C[C@]2(C)C(=O)CC[C@@H]12` the T/C [4] was 100 % of control, the T/C [5] was 100 % of control and the T/C [6] was 109 % of control.
`CCCCOc1cc(C(=O)NCCN(CC)CC)c2ccccc2n1` was tested, and the T/C [12] was 100 % of control, the T/C [14] was 109 % of control and the T/C [16] was 109 % of control.
In the case of `CNC(=O)NC1C(O)COC(OC)C1O` (stereo not given), the T/C [10] is reported as 104 % of control and the T/C [11] is reported as 109 % of control.
For `CC1NC(=O)OC1C(C)(C)C` (stereo not given), the T/C [13] was 88 % of control, the T/C [15] was 98 % of control and the T/C [22] was 86 % of control and 95 % of control.
In the case of `COC(OC)c1[nH]c(=S)[nH]c(=O)c1Cc1ccccc1`, the T/C [8] is reported as 104 % of control, the T/C [9] is reported as 112 % of control and the T/C [17] is reported as 112 % of control.
With `Cc1ccc(C(=O)N(N)C2CCCCC2)cc1` the T/C [22] was 92 % of control.
With `Cc1cc(NC(=O)Nc2ccc(C3=NCCCN3)cc2)ccc1NC(=O)Nc1ccc(C2=NCCCN2)cc1` the T/C (dose: 29.0 mg/kg/injection, schedule: Q01DX009 (ip), vehicle: saline) was 166 % of control, the T/C (dose: 45.0 mg/kg/injection, schedule: Q01DX009 (ip), vehicle: saline) was 153 % of control and the T/C (dose: 65.0 mg/kg/injection, schedule: Q01DX009 (ip), vehicle: saline) was 157 % of control. For the same molecule, the T/C [2] was 216 % of control, the T/C (dose: 130.0 mg/kg/injection, schedule: Q01DX009 (ip), vehicle: saline) was 243 % of control and the T/C [3] was 227 % of control and 219 % of control. For the same molecule, the T/C (dose: 300.0 mg/kg/injection, schedule: Q01DX009 (ip), vehicle: saline) was 169 % of control and the T/C [21] was 98 % of control.
With `C=CCCCCCCCCC(=O)N(CC#N)CC(C)C` the T/C [22] was 100 % of control, the T/C [4] was 109 % of control and the T/C [5] was 109 % of control.
`O=COc1ccc([N+](=O)[O-])cc1` was tested, and the T/C (dose: 25.0 mg/kg/injection, schedule: Q04DX003 (ip), vehicle: saline) was 95 % of control, the T/C (dose: 50.0 mg/kg/injection, schedule: Q04DX003 (ip), vehicle: saline) was 100 % of control and the T/C [7] was 100 % of control.
In the case of `O=C(Nc1ccc2c(c1)C(Br)c1ccccc1-2)C(F)(F)F` (stereo not given), the T/C [19] is reported as 90 % of control, the T/C [20] is reported as 100 % of control and the T/C (dose: 200.0 mg/kg/injection, schedule: Q01DX009 (ip), vehicle: Klucel (hydroxypropylcellulose) (HPC)) is reported as 118 % of control.
